The subject of experiment [1] is transcriptional factor Runx2. Description: Runx2 expression, p6xOSE2-Luc luciferase assay in C2C12 cells. It counts as cell-based, mouse. As for the experimental part:
In the following tests, three kinds of cell lines were used. The human osteosarcoma cell lines, MG-63 (ATCC No. CRL-1427) and HOS (ATCC No. CRL-1543), and mouse muscle C2C12 muscle cells (ATCC No. CRL-1772) were purchased from ATCC (American Type Culture Collection, Rockville, USA), and cultured in Dulbecco's modified Eagle's medium (DMEM) supplemented with 10% fetal bovine serum (FBS).
Primarily, transient transfection was carried out using a p6xOSE2-Luc vector, which was prepared by inserting into a pGL3 promoter vector six tandem copies of the OSE2 motif, the binding site of the transcriptional factor Runx2 that is a critical regulator for osteoblast differentiation. Runx2 expression levels were determined by luciferase assay. The test procedure will be described in more detail, as follows.
C2C12 cells were plated onto 6-well plates at a density of 1(10^5 cells per well, and cultured for 24 hrs in a 5% CO2 incubator.
Then, the cells transiently transfected with the p6xOSE2-Luc vector using a transfection reagent, LipofectAmine, as follows. The plasmid DNA was reacted with the transfection reagent for 15 min to form p6xOSE2-Luc DNA:lipofectamine complexes. During this reaction, culture medium was removed from each well of the plates, the cells were washed with FBS-free DMEM, and 800 μl of FBS-free DMEM was added to each well. […]

For experiment [2], the system named is female white mice with osteoporosis induced by ovariectomy. Put plainly: Preventive effect 1 on osteoporosis, tibia histology, oral administration. Conditions: oral for four weeks immediately after ovariectomy. It counts as in vivo. The protocol: In order to evaluate effects of the compound of the present invention on treatment and prevention of osteoporosis, female white mice with osteoporosis induced by ovariectomy were used as a disease model. After ovariectomy, mice were administered with the compound of the present invention. Tibias were dissected from the mice, and observed histologically.
After anesthetizing female white mice with 100 mg/kg of Ketamine (Ketara) and 0.15 ml/kg of 2% Xylazine (Rompun), the lumbar dorsum is shaved bilaterally and the exposed skin was prepared for aseptic surgery by a 10% povidone-iodine scrub followed by a 70% alcohol wipe.
A 1-cm incision was made in the central region of the abdomen, and the ovary was identified along with the uterus with caution not to damage the main organs such as the liver and diaphragm. After ligating the uterus with a thread for suturing, the exposed ovary was severed toward both sides and removed. Thereafter, each organ was relocated to its original position, and the incision was closed with a thread for suturing in an interrupted pattern. […]
The daily dosage of the Compound 1 per female white mouse was determined based on 250 g body weight. […] With caution not to exchange the water bottles between the groups, everyday, the number of mice was recorded, and the mixture was prepared based on the number of mice. […]

Experiment [3] concerns ovariectomized female white mice. Description: Preventive effect on osteoporosis, bone mineral densitometer. It counts as in vivo. Conditions: for Change in BMD, %: oral 10 mg per mouse. As for the experimental part:
After ovariectomy, female white mice weighing about 250 g were orally administered with 10 mg of the Compound 1 per mice for four weeks. Bone mineral density (BMD) was measured before the ovariectomy and every week during the administration of the Compound 1, using a bone mineral densitometer, XCT 540 Research SA made in Germany.
After anesthetizing the mice being bred in cages by intraperitoneal injection of a mixture of Ketamine HCl (ketara 10 mg/kg) and 2% xylazine HCl (Roupun 0.15 ml/kg), BMD measurement was made at a voxel size of 0.1×0.1 mm^2 and threshold value 280 mg/cm^2 for cancellous bone and 500 mg/cm^2 for compact bone. The analysis sites at the proximal tibias were determined by Scout scans (10 mm/sec), and BMD was measured at three slices at the determined sites by CT scans (7 mm/sec). BMD measurement was performed twice or more at the same every week during four weeks.

“Also recorded” adds a separate entry of the source.

Consider `O=Cc1ccc(CO)o1` [Compound 1, 5-hydroxymethylfuran-2-carboxyaldehyde], for which the “effect on activity of Runx2 (in words)” value in experiment [1] is listed as “increase the activity of Runx2”. Further, the “cortical and trabecular bone compared to the control group, 40× magnification” value in experiment [2] was “marked increase in the cortical and trabecualr bone”. In addition, the “trabecular bone loss in tibia, light microscopy” value in experiment [2] (10 mg/day, 12.5× and 40× magnification) is “such trabecular bone loss was not observed; also recorded: no trabecular bone loss”. Further, the “BMD after four weeks of administration compared to before ovariectomy (in words)” value in experiment [3] (oral 10 mg/day for four weeks after ovariectomy) is reported as “increase in BMD; also recorded: remarkably increased bone mineral density (BMD)”. Moreover, the “Change in BMD, %” value in experiment [3] (week 1 after ovariectomy, control −7.5) is given as −2.5%; in experiment [3] (week 2 after ovariectomy, control −11.6) it was −3.2%; in experiment [3] (week 3 after ovariectomy, control −14.9), −1.8%; in experiment [3] (week 4 after ovariectomy, control −18.6), 3.7%.
